The values below come from patent US7972831B2, “Lipases from thermophilic anaerobes” (Novozymes A/S, priority 2004, dated 2011).

One series has as its system lipase. The experiment in a line: Effect of detergent ingredients on lipase activity. It counts as biochemical. Particulars: 1.5 hours at 30° C., up to 10% by weight of compound. As to the method: The activity of the lipase was tested after incubation for 1.5 hours at 30° C. with up to 10% by weight of various compounds.
Series [1] relates to lipase of SEQ ID NO: 2. The experiment in a line: Effect of inhibitors on lipase activity. The series is classed as biochemical, Thermoanaerobacter thermohydrosulfuricus. Particulars: for effect on the activity of the lipase: up to 10 mM.
For another series, the system named is lipase of SEQ ID NO: 4. Kind of series: Effect of inhibitors on lipase activity. The series is classed as biochemical, Caldanaerobacter subterraneus subsp. tengcongensis. The settings on record: for effect on the activity of the lipase: up to 10 mM.
Series [2] has as its system lipase of SEQ ID NO: 2. Kind of series: Positional specificity towards monoglycerides. The series is classed as biochemical, Thermoanaerobacter thermohydrosulfuricus.
A short description of series [3]: Specific activity of purified lipase. Particulars: after three-step purification. The series is classed as biochemical, Thermoanaerobacter thermohydrosulfuricus. The method, then: The lipase solution obtained after hydrophobic interaction chromatography was loaded on a hydroxilapatite column used as a second purification step. The lipase was eluted at the approximate mid-point of the sodium phosphate buffer gradient (220 to 250 mM range). The active fractions were further subjected to gel filtration column. […] The enzyme activity was present in the second major peak. The lipase was purified approximately 133.5-fold over the crude extract with a 10.2% yield. The specific activity of the purified lipase was 12.3 U/mg.

A short description of series [4]: Effect of pH on lipase activity. It counts as biochemical.

Where a name gives a salt, the structure may show the parent alone.

Take `CCCCCCCCCCCCOS(=O)(=O)[O-].[Na+]` [SDS]: the “effect on activity after incubation” value with lipase is recorded as “full enzyme inhibition”.

Consider `OCCS` [b-mercaptoethanol], for which the “effect on the activity of the lipase” value in the series on lipase of SEQ ID NO: 2 [1] and with lipase of SEQ ID NO: 4 was “little effect” each time. Turning to `N=C(N)N` [guanidine hydrochloride], the “effect on the activity of the lipase” value in the series on lipase of SEQ ID NO: 2 [1] and in the series with lipase of SEQ ID NO: 4 was “little effect” throughout. With monopalmitoyl glycerols, the “hydrolysis of 1-positional ester bond lower in comparison with 2-positional ester bond” value in the series with lipase of SEQ ID NO: 2 [2] is given as “less than 2 fold”. Triton X-100: the “effect on activity after incubation” value in the series on lipase is reported as “decreased the activity”. With `O=S(=O)(F)Cc1ccccc1` [PMSF], the “inactivation of the lipase” value in the series with lipase of SEQ ID NO: 2 [1] (0.1-1 mM) and in the series on lipase of SEQ ID NO: 4 (0.1-1 mM) was “inactivated” throughout. For `NC(N)=O` [urea], the “effect on the activity of the lipase” value in the series on lipase of SEQ ID NO: 2 [1] and with lipase of SEQ ID NO: 4 was “little effect” throughout. Take `O=C(O)c1cc[c]([Hg][OH])cc1` [pHMB]: the “effect on the activity of the lipase” value in the series with lipase of SEQ ID NO: 2 [1] and with lipase of SEQ ID NO: 4 was “little effect” throughout. In the case of `CCCCCCCC/C=C\CCCCCCCC(=O)OCCOCC(OCCO)C1OCC(OCCO)C1OCCO` (stereo not shown) [Tween-80], the “effect on activity after incubation” value in the series with lipase is listed as “decreased the activity”. As to `O[C@@H](CS)[C@@H](O)CS` [DTT], the “effect on the activity of the lipase” value in the series with lipase of SEQ ID NO: 2 [1] and with lipase of SEQ ID NO: 4 was “little effect” in each case.

B1: lipase of SEQ ID NO: 2: polypeptide having lipase activity from Thermoanaerobacter thermohydrosulfuricus DSM 7021 and T. brockii subsp. brockii DSM 1457 (protein, listed as Thermoanaerobacter thermohydrosulfuricus)
chain: MQKAVEITYNGKTLRGMMHLPDDVKGKVPMVIMFHGFTGNKVESHFIFVKMSRALEKVGIGSVRFDFYGSGESDGDFSEMTFSSELEDARQILKFVKEQPTTDPERIGLLGLSMGGAIAGIVAREYKDEIKALVLWAPAFNMPELIMNESVKQYGAIMEQLGFVDIGGHKLSKDFVEDISKLNIFELSKGYDKKVLIVHGTNDEAVEYKVSDRILKEVYGDNATRVTIENADHTFKSLEWEKKAIEESVEFFKKELLKG
For the molecule B1, the “specific activity of the purified lipase” value in series [3] came to 12.3 U/mg. In series [4], the “activity at pH 6.5-9.0” value is on record as above 80%.

B2: lipase of SEQ ID NO: 4: polypeptide having lipase activity from Caldanaerobacter subterraneus subsp. tengcongensis DSM 15242 (protein, listed as Thermoanaerobacter tencongensis)
chain: VQKAVEFTYNRKTLRGMLHLPEGVSEKVPMVVMFHGFTGNKVESHFIFVKMSRALEKVGIGSVRFDFYGSGESDGDFSEMTFSGELEDARQILDFVKRQPTTDVERIGLLGLSMGGAIAGIIARERKEDVKALVLWAPAFNMPELIMGEGARQYGAIMESLGYVDIGGLKLDRAFVEDIAKFNIFELSRGYEGKVLIVHGTNDEAVEYRISDRILQEVYGDNAFRVTIEGADHTFKNLEWERKAIEESVKFFERELKG
With B2, the “activity at pH 6.5-9.0” value in series [4] is recorded as above 60%.
